Measurements reported in US9517202B2, “Phospholipid depot” (LATITUDE PHARMACEUTICALS INC., priority 2009, dated 2016).

Experiment: Injectability test: force to extrude from 1 cc syringe through 25 G ½ inch needle at 2 cc/min
Format: physicochemical
Conditions: 25 G ½ inch long needle
Excerpt: A major disadvantage of the polymer depots is that they require large diameter needles for injection or implantation due to the physical size of the microcapsules/microspheres and/or the high viscosity of the polymer gel. For example, 14- or 16-gauge (G) needles are required for implantation of Zoladex™ and 18 G or 20 G needles for injection of Eligard™. However, in common medical practice, needles of size greater than 21 G are generally not used for injection because they cause significant pain and psychological trauma for patients. […] The injectability or ease with which the end user can self-inject through such a system will be key to such a drug's user compliance and therapeutic efficacy. For discussion purposes herein, the injectability of a syringe-administered depot is quantitatively defined as meeting the “Acceptable Injectability Criterion” if it requires an applied force of no more than 10 pounds to be extruded from a 1 cc syringe through a 25 G ½ inch long needle at rate of 2 cc/min.
The phrase “Acceptable Injectability Criterion” as used herein includes quantitatively defining a formulation that requires an applied force of no more than 10 pounds to extrude the formulation from a 1 cc syringe through a 25 G ½ inch long needle at rate of 2 cc/min. […]
F-43 was a translucent one-phase gel. The injectability of F-43 was determined against the Acceptable Injectability Criterion. […]

maximum injection force: approximately 8 pounds
Compound: OCC(O)CO [glycerin]
